Consider 25 compounds from patent US10875876B2, “Cyclized sulfamoylarylamide derivatives and the use thereof as medicaments for the treatment of hepatitis B” (priority 2015, dated 2020).

One data set has as its system HBV. The data set is described as follows: anti HBV activity, HepG2.117 cell line, intracellular HBV DNA by realtime PCR. Type of data set: cell-based. Particulars: Hepatitis B virus, HepG2.117, 72 h, HepG2.117 cell line (Tet-off), 3 days of treatment, intracellular HBV DNA quantified by realtime PCR; read-out: HBV-AVE-HepG2.117 EC50. A digest of the protocol:
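HepG2.117 cells, a Tet-off line that replicates HBV without doxycycline, were induced and then treated in duplicate with serially diluted compound. After 3 days, intracellular HBV DNA was quantified by real-time PCR with an HBV-specific primer set and probe.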

A short description of data set [1]: Cytotoxicity in HepG2 cells, Resazurin assay. Particulars: human, HepG2 cells, TOX-HepG2-4 d CC50 (μM), HepG2 cells incubated for 4 days, viability by Resazurin assay.

As for `Cn1cc2c(c1C(=O)Nc1ccc(F)c(C#N)c1)OC[C@H](Cc1cccnc1)NS2(=O)=O` [Compound 71, (3S)—N-(3-cyano-4-fluoro-phenyl)-7-methyl-1,1-dioxo-3-(3-pyridylmethyl)-3,4-dihydro-2H-pyrrolo[3,4-b][1,4,5]oxathiazepine-6-carboxamide], the half-maximal effective concentration (EC50) in the data set on HBV was 3 nM. Besides, the 50% cytotoxic concentration (CC50) at 4 days in data set [1] was above 25 µM.
The corresponding values for `Cn1cc2c(c1C(=O)Nc1ccc(F)c(F)c1)OCC(C1CCN(C(=O)OC(C)(C)C)CC1)NS2(=O)=O` (centres unmarked) [Compound 72, tert-butyl 4-[6-[(3,4-difluorophenyl)carbamoyl]-7-methyl-1,1-dioxo-3,4-dihydro-2H-pyrrolo[3,4-b][1,4,5]oxathiazepin-3-yl]piperidine-1-carboxylate] are 50 nM and above 25 µM.
The corresponding values for `Cn1cc2c(c1C(=O)Nc1ccc(F)c(F)c1)OCC(C1CCNCC1)NS2(=O)=O` (centres unmarked) [Compound 73, N-(3,4-difluorophenyl)-7-methyl-1,1-dioxo-3-(4-piperidyl)-3,4-dihydro-2H-pyrrolo[3,4-b][1,4,5]oxathiazepine-6-carboxamide] are 480 nM and above 25 µM.
Take `Cc1cc(NC(=O)c2c3c(cn2C)S(=O)(=O)N[C@@H](Cc2cccnc2)CO3)ccc1F` [Compound 74, (3S)—N-(4-fluoro-3-methyl-phenyl)-7-methyl-1,1-dioxo-3-(3-pyridylmethyl)-3,4-dihydro-2H-pyrrolo[3,4-b][1,4,5]oxathiazepine-6-carboxamide]: the EC50 with HBV was determined as 52 nM. In data set [1], this compound yielded a half-maximal cytotoxic concentration (CC50) at 4 days above 25 µM.
The corresponding values for `Cn1cc2c(c1C(=O)Nc1ccc(F)c(C(F)F)c1)OC[C@H](Cc1cccnc1)NS2(=O)=O` [Compound 75, (3S)—N-[3-(difluoromethyl)-4-fluoro-phenyl]-7-methyl-1,1-dioxo-3-(3-pyridylmethyl)-3,4-dihydro-2H-pyrrolo[3,4-b][1,4,5]oxathiazepine-6-carboxamide] are 7 nM and above 25 µM.
The corresponding values for `CN1CCC(C2COc3c(cn(C)c3C(=O)Nc3ccc(F)c(F)c3)S(=O)(=O)N2)CC1` (centres unmarked) [Compound 76, N-(3,4-difluorophenyl)-7-methyl-3-(1-methyl-4-piperidyl)-1,1-dioxo-3,4-dihydro-2H-pyrrolo[3,4-b][1,4,5]oxathiazepine-6-carboxamide] are 220 nM and above 25 µM.
For the compound `C[C@H](O)[C@H]1COc2c(cn(C)c2C(=O)Nc2ccnc(C(F)F)c2)S(=O)(=O)N1` [Compound 77, (3R)—N-[2-(difluoromethyl)-4-pyridyl]-3-[(1S)-1-hydroxyethyl]-7-methyl-1,1-dioxo-3,4-dihydro-2H-pyrrolo[3,4-b][1,4,5]oxathiazepine-6-carboxamide], the EC50 in the data set with HBV came out at 230 nM. The half-maximal cytotoxic concentration (CC50) at 4 days in data set [1] is above 25 µM.
The corresponding values for `Cn1cc2c(c1C(=O)Nc1ccc(F)c(F)c1)OCC(C1CCN(CC(F)(F)F)CC1)NS2(=O)=O` (centres unmarked) [Compound 78, N-(3,4-difluorophenyl)-7-methyl-1,1-dioxo-3-[1-(2,2,2-trifluoroethyl)-4-piperidyl]-3,4-dihydro-2H-pyrrolo[3,4-b][1,4,5]oxathiazepine-6-carboxamide] are 56 nM and above 25 µM.
In the same order, the values of `COC(C)(C)C1COc2c(cn(C)c2C(=O)Nc2ccc(F)c(F)c2)S(=O)(=O)N1` (centres unmarked) [Compound 80, N-(3,4-difluorophenyl)-3-(1-methoxy-1-methyl-ethyl)-7-methyl-1,1-dioxo-3,4-dihydro-2H-pyrrolo[3,4-b][1,4,5]oxathiazepine-6-carboxamide] are 18 nM and above 25 µM.
The corresponding values for `CC(C)C1CCc2c(cn(C)c2C(=O)Nc2ccc(F)c(F)c2)S(=O)(=O)N1` (centres unmarked) [Compound 81, N-(3,4-difluorophenyl)-3-isopropyl-7-methyl-1,1-dioxo-2,3,4,5-tetrahydropyrrolo[3,4-f]thiazepine-6-carboxamide] are 2 nM and above 25 µM.
With `CC(C)C1C=Cc2c(cn(C)c2C(=O)Nc2ccc(F)c(C(F)F)c2)S(=O)(=O)N1` (centres unmarked) [Compound 82, N-[3-(difluoromethyl)-4-fluoro-phenyl]-3-isopropyl-7-methyl-1,1-dioxo-2,3-dihydropyrrolo[3,4-f]thiazepine-6-carboxamide], the half-maximal effective concentration (EC50) in the data set with HBV turned out to be 4 nM. In data set [1], the cytotoxic concentration (CC50) at 4 days is above 25 µM.
The corresponding values for `Cn1cc2c(c1C(=O)Nc1ccc(F)c(F)c1)OCC(CO)NS2(=O)=O` (centres unmarked) [Compound 83, N-(3,4-difluorophenyl)-3-(hydroxymethyl)-7-methyl-1,1-dioxo-3,4-dihydro-2H-pyrrolo[3,4-b][1,4,5]oxathiazepine-6-carboxamide] are 58 nM and above 25 µM.
In the case of `C[C@H](O)[C@H]1C=Cc2c(cn(C)c2C(=O)Nc2ccc(F)c(F)c2)S(=O)(=O)N1` [Compound 84, (3R)—N-(3,4-difluorophenyl)-3-[(1S)-1-hydroxyethyl]-7-methyl-1,1-dioxo-2,3-dihydropyrrolo[3,4-f]thiazepine-6-carboxamide], the EC50 in the data set with HBV is 10 nM. The CC50 at 4 days in data set [1] is above 25 µM.
In the same order, the values of `CC(C)C1CCc2c(cn(C)c2C(=O)Nc2ccc(F)c(C#N)c2)S(=O)(=O)N1` (centres unmarked) [Compound 85, N-(3-cyano-4-fluoro-phenyl)-3-isopropyl-7-methyl-1,1-dioxo-2,3,4,5-tetrahydropyrrolo[3,4-f]thiazepine-6-carboxamide] are 7 nM and above 25 µM.
In the same order, the values of `CC(C)C1CCc2c(cn(C)c2C(=O)Nc2ccc(F)c(C(F)F)c2)S(=O)(=O)N1` (centres unmarked) [Compound 86, N-[3-(difluoromethyl)-4-fluoro-phenyl]-3-isopropyl-7-methyl-1,1-dioxo-2,3,4,5-tetrahydropyrrolo[3,4-f]thiazepine-6-carboxamide] are 5 nM and above 25 µM.
Turning to `C[C@H](O)[C@H]1C=Cc2c(cn(C)c2C(=O)Nc2ccc(F)c(C#N)c2)S(=O)(=O)N1` [Compound 87, (3R)—N-(3-cyano-4-fluoro-phenyl)-3-[(1S)-1-hydroxyethyl]-7-methyl-1,1-dioxo-2,3-dihydropyrrolo[3,4-f]thiazepine-6-carboxamide], the EC50 with HBV is 18 nM. In data set [1], this compound registered a half-maximal cytotoxic concentration (CC50) at 4 days above 25 µM.
In the same order, the values of `C[C@H](O)[C@H]1CCc2c(cn(C)c2C(=O)Nc2ccc(F)c(F)c2)S(=O)(=O)N1` [Compound 88, (3R)—N-(3,4-difluorophenyl)-3-[(1S)-1-hydroxyethyl]-7-methyl-1,1-dioxo-2,3,4,5-tetrahydropyrrolo[3,4-f]thiazepine-6-carboxamide] are 11 nM and above 25 µM.
The corresponding values for `C[C@H](O)[C@H]1CCc2c(cn(C)c2C(=O)Nc2ccc(F)c(C#N)c2)S(=O)(=O)N1` [Compound 90, (3R)—N-(3-cyano-4-fluoro-phenyl)-3-[(1S)-1-hydroxyethyl]-7-methyl-1,1-dioxo-2,3,4,5-tetrahydropyrrolo[3,4-f]thiazepine-6-carboxamide] are 19 nM and above 25 µM.
The corresponding values for `Cn1cc2c(c1C(=O)Nc1ccc(F)c(C#N)c1)OCCNS2(=O)=O` [Compound 91, N-(3-cyano-4-fluoro-phenyl)-7-methyl-1,1-dioxo-3,4-dihydro-2H-pyrrolo[3,4-b][1,4,5]oxathiazepine-6-carboxamide] are 130 nM and above 25 µM.
Regarding `Cn1cc2c(c1C(=O)Nc1ccc(F)c(F)c1)OC[C@H](C(C)(C)O)NS2(=O)=O` [Compound 93, (3R)—N-(3,4-difluorophenyl)-3-(1-hydroxy-1-methyl-ethyl)-7-methyl-1,1-dioxo-3,4-dihydro-2H-pyrrolo[3,4-b][1,4,5]oxathiazepine-6-carboxamide], the half-maximal effective concentration (EC50) in the data set on HBV is 12 nM. This compound also displayed a 50% cytotoxic concentration (CC50) at 4 days in data set [1] above 25 µM.
As for `Cn1cc2c(c1C(=O)Nc1ccc(F)c(F)c1)OCC(C(O)c1cccnc1)NS2(=O)=O` (centres unmarked) [Compound 95, N-(3,4-difluorophenyl)-3-[hydroxy(3-pyridyl)methyl]-7-methyl-1,1-dioxo-3,4-dihydro-2H-pyrrolo[3,4-b][1,4,5]oxathiazepine-6-carboxamide], the EC50 in the data set on HBV stood at 22 nM. The same compound came in with a CC50 at 4 days in data set [1] above 25 µM.
In the same order, the values of `C[C@H](O)[C@H]1C=Cc2c(cn(C)c2C(=O)Nc2ccnc(Br)c2)S(=O)(=O)N1` [Compound 97, (3R)—N-(2-bromo-4-pyridyl)-3-[(1S)-1-hydroxyethyl]-7-methyl-1,1-dioxo-2,3-dihydropyrrolo[3,4-f]thiazepine-6-carboxamide] are 55 nM and above 25 µM.
The corresponding values for `Cc1cc(NC(=O)c2c3c(cn2C)S(=O)(=O)N[C@@H]([C@H](C)O)C=C3)ccc1F` [Compound 99, (3R)—N-(4-fluoro-3-methyl-phenyl)-3-[(1S)-1-hydroxyethyl]-7-methyl-1,1-dioxo-2,3-dihydropyrrolo[3,4-f]thiazepine-6-carboxamide] are 4 nM and above 25 µM.
With `Cn1cc2c(c1C(=O)Nc1ccc(F)c(C(F)F)c1)OC[C@H](C(C)(C)O)NS2(=O)=O` [Compound 100, (3R)—N-[3-(difluoromethyl)-4-fluoro-phenyl]-3-(1-hydroxy-1-methyl-ethyl)-7-methyl-1,1-dioxo-3,4-dihydro-2H-pyrrolo[3,4-b][1,4,5]oxathiazepine-6-carboxamide], the concentration for a half-maximal effect (EC50) in the data set on HBV came to 3 nM. Moreover, the half-maximal cytotoxic concentration (CC50) at 4 days in data set [1] is above 25 µM.
The corresponding values for `C[C@H](O)[C@H]1CCc2c(cn(C)c2C(=O)Nc2cc(F)c(F)c(F)c2)S(=O)(=O)N1` [Compound 104, (3R)-3-[(1S)-1-hydroxyethyl]-7-methyl-1,1-dioxo-N-(3,4,5-trifluorophenyl)-2,3,4,5-tetrahydropyrrolo[3,4-f]thiazepine-6-carboxamide] are 7 nM and above 25 µM.
